Test results from patent publication US5427999A, “Amine adducts as corrosion inhibitors” (Exxon Chemical Patents Inc., priority 1991, dated 1995).

What was measured:
Skeletonema costatum [1] = conditions: normally a concentration of 1.3 mg/kg, 4320 min; cited from earlier work
Skeletonema costatum [2] = assay: Marine phytoplankton inhibition of growth rate; assay type: cell-based, Skeletonema costatum (Greville) Cleve, Clone Skel-5; conditions: 72 h, control compound, measured in this test, read-out: normal growth rate, measured in this test
Method: Growth inhibition tests have also been carried out to assess the impact of the compounds on the, marine algae Skeletonema Costatum. This is a test which is becoming required by some offshore authorities, and is therefore of particular interest when considering the practical applications of the compounds.
Test organisms: Skeletonema costatum (Greville) Cleve, Clone Skel-5.
Incubation: 3 days at 14° C., in light/darkness cycles of 14 hrs/10 hrs.
Test samples: Aliquots of each sample are weighed into phytoplankton medium and extracted; moderate shaking for 20 hrs at 14° C.
Control compound: Na-dodecyl-sulphate. Normally a concentration of 1.3 mg/kg gives 30 to 70% of normal growth rate. Measured in this test: 30% to 55%.
Results were calculated as the concentration of compound required to inhibit 50% growth of algae during three days of exposure, termed EC50, given in mg/kg (ppm). The interval EC20 to EC80 is also given.

**Q.** What does the source list for `CCCCCCCCCCCCOS(=O)(=O)O` [Na-dodecyl-sulphate]?
**A.** normal growth rate, normally given by control compound (Skeletonema costatum [1]): 30 to 70%; activity at 1.3 mg/kg (Skeletonema costatum [2]): 30 to 55%
